The record followed here is patent US7037693B2, “Muskmelon (Cucumis melo) hydroperoxide lyase and uses thereof” (Vanderbilt University, priority 2000, dated 2006).

Values joined by “and” are separate entries in the source; they are usually repeats but may differ in a detail not shown here. Identical values can stand only once.

By Km is commonly meant the substrate concentration at which the rate is half of its maximum.

Data set [1] concerns the target melon 9-hydroperoxide lyase (9-HPL) (Cucumis melo, UniProt A0A1S3BZK9). Briefly: Kinetics of melon 9-HPL with fatty acid hydroperoxide substrates (spectrophotometric assay, decrease in absorbance at 235 nm). It is filed as biochemical. The note with it: relative to 9-hydroperoxylinolenic acid; 'preferably approximately' value. Here is the method:
The resulting pellet of cells was resuspended in Tris-acetate buffer (0.1 M, pH 7.6) containing sucrose (0.5 M), EDTA (0.5 mM) and lysozyme (1 mg/ml). After 30 min on ice, the mixture was centrifuged as before to obtain a pellet of spheroplastes. These were resuspended in potassium phosphate buffer (0.1 M, pH 7.6) containing magnesium acetate (6 mM), glycerol (20% v/v) and DTT (0.1 mM) and the mixture left for 10 min at −80° C. Following this, a protease inhibitor was added (PMSF, 1 mM) and the cells sonicated (2×30 seconds). […] Compared to the control protein produced from vector alone with no cDNA insert, there was less protein, but the bacterial lysates of each gave easily measurable catalytic activity. By monitoring the disappearance of the UV-235 nm absorbance of the fatty acid hydroperoxide substrates, less than 1 μl (<10 μg crude protein) of the suspended and lysed bacterial pellets were required in order to observe reaction in a 1 ml UV cuvette. Measurement was made using the spectrophotometric assay (decrease in absorbance at 235 nm) and the initial rates of reaction. The turnover number of the purified 9-HPL enzyme (number of product molecules formed per molecule of enzyme) using 9S-hydroperoxylinoleic acid as substrate was calculated from the known concentration of the enzyme (measured at the Soret maximum at 416 nm, and using a molar extinction coefficient of 100,000), and the measured rates of change of substrate concentration (using the molar extinction coefficient of 23,000 at 235 nm of the conjugated diene).

Substrate in data set [2]: CC/C=C\C[C@@H](/C=C/C=C\CCCCCCCC(=O)O)OO
Described as above. It is filed as biochemical, Cucumis melo. The note with it: 95% confidence limits given; pH 7.6. Here is the method:
(§1) The resulting pellet of cells was resuspended in Tris-acetate buffer (0.1 M, pH 7.6) containing sucrose (0.5 M), EDTA (0.5 mM) and lysozyme (1 mg/ml). After 30 min on ice, the mixture was centrifuged as before to obtain a pellet of spheroplastes. These were resuspended in potassium phosphate buffer (0.1 M, pH 7.6) containing magnesium acetate (6 mM), glycerol (20% v/v) and DTT (0.1 mM) and the mixture left for 10 min at −80° C. Following this, a protease inhibitor was added (PMSF, 1 mM) and the cells sonicated (2×30 seconds). […] By monitoring the disappearance of the UV-235 nm absorbance of the fatty acid hydroperoxide substrates, less than 1 μl (<10 μg crude protein) of the suspended and lysed bacterial pellets were required in order to observe reaction in a 1 ml UV cuvette. Measurement was made using the spectrophotometric assay (decrease in absorbance at 235 nm) and the initial rates of reaction. The turnover number of the purified 9-HPL enzyme (number of product molecules formed per molecule of enzyme) using 9S-hydroperoxylinoleic acid as substrate was calculated from the known concentration of the enzyme (measured at the Soret maximum at 416 nm, and using a molar extinction coefficient of 100,000), and the measured rates of change of substrate concentration (using the molar extinction coefficient of 23,000 at 235 nm of the conjugated diene).

Substrate in data set [3]: CCCCC/C=C\C=C\[C@H](CCCCCCCC(=O)O)OO
The description is as above. It is filed as biochemical, Cucumis melo. The settings on record: 95% confidence limits given; pH 7.6. Here is the method: as §1

A short description of data set [4]: pH dependence of the activity of the lyase. In kind it is biochemical, Cucumis melo.

On to `CC/C=C\C[C@@H](/C=C/C=C\CCCCCCCC(=O)O)OO` [13-hydroperoxylinolenic acid, (9Z, 11E, 13S, 15Z) 13-hydroperoxyoctadeca-9,11,15-trienoic acid], for which, in data set [1], the “Vmax as percentage of the Vmax of the lyase for 9-hydroperoxylinolenic acid” value (“Vmax as percentage” below) is recorded as “approximately 22%”. As to `CCCCC[C@@H](/C=C/C=C\CCCCCCCC(=O)O)OO` [13-hydroperoxylinoleic acid, (9Z,11E,13S)13-hydroperoxyoctadeca-9,11-dienoic acid], the “Vmax as percentage” value in data set [1] was “approximately 30%”. With `CCCCC/C=C\C=C\[C@H](CCCCCCCC(=O)O)OO` [9-hydroperoxylinoleic acid, (9S, 10E, 12Z) 9-hydroperoxyoctadeca-10,12-dienoic acid], in data set [1], the “Km as percentage of the Km of the lyase for 9-hydroperoxylinolenic acid” value is on record as “approximately 54%” and the “Vmax as percentage” value was “approximately 55%”.

B1: melon 9-hydroperoxide lyase (9-HPL) (Cucumis melo) (protein)
chain: MATPSSSSPELPLKPIPGGYGFPFLGPIKDRYDYFYFQGRDEFFRSRITKYNSTVFRANMPPGPFISSDSRVVVLLDALSFPILFDTAKVEKRNILDGTYMPSLSFTGNIRTCAYLDPSETEHSVLKRLFLSFLASRHDRFIPLFRSSLSEMFVKLEDKLSEKKKIADFNSISDSMSFDYVFRLLSDGTPDSKLAAEGPGMFDLWLVFQLAPLASIGLPKIFSVFEDLVIHTIPLPFFPVKSGYRKLYEAFYSSSGSFLDEAEKQGIDREKACHNLVFLAGFNAYGGMKVLFPTLLKWVGTAGEDLHRKLAEEVRTTVKEEGGLTFSALEKMSLLKSVVYEALRIEPPVPFQYGKAKEDIVIQSHDSSFKIKKGETIFGYQPFATKDPKIFKDSEKFVGDRFVGEEGEKLLKYVYWSNERETVEPTAENKQCPGKNLVVLIGRIMVVEFFLRYDTFTVEVADLPLGPAVKFKSLTRATDMV
With B1, the Km is 50 µM and 51 µM in data set [2]; 192 µM in data set [3].

B2: lyase: fatty acid 9-hydroperoxide lyase of muskmelon (Cucumis melo), SEQ ID NO:7, recombinantly expressed in E. coli (protein)
chain: MATPSSSSPELPLKPIPGGYGFPFLGPIKDRYDYFYFQGRDEFFRSRITKYNSTVFRANMPPGPFISSDSRVVVLLDALSFPILFDTAKVEKRNILDGTYMPSLSFTGNIRTCAYLDPSETEHSVLKRLFLSFLASRHDRFIPLFRSSLSEMFVKLEDKLSEKKKIADFNSISDSMSFDYVFRLLSDGTPDSKLAAEGPGMFDLWLVFQLAPLASIGLPKIFSVFEDLVIHTIPLPFFPVKSGYRKLYEAFYSSSGSFLDEAEKQGIDREKACHNLVFLAGFNAYGGMKVLFPTLLKWVGTAGEDLHRKLAEEVRTTVKEEGGLTFSALEKMSLLKSVVYEALRIEPPVPFQYGKAKEDIVIQSHDSSFKIKKGETIFGYQPFATKDPKIFKDSEKFVGDRFVGEEGEKLLKYVYWSNERETVEPTAENKQCPGKNLVVLIGRIMVVEFFLRYDTFTVEVADLPLGPAVKFKSLTRATDMV
modifications: Cucumis melo
For B2, the “activity as percentage of maximal activity” value was “approximately 25%” in data set [4] (pH 5.0) and “approximately 15%” in data set [4] (pH 9.0).
